# Where two headings read alike, the source gives them in different places.
# Key:
# human LTA4H = molecular target: T1, human LTA4H (Homo sapiens, UniProt P09960); test: Human LTA4H enzyme assay (Arg-AMC substrate); assay type: biochemical; conditions: Arg-AMC 600 μM, 9 nM human LTA4H, 15 min pre-incubation; mean values of at least 3 measurements; read-out: ArgAMC IC50
# T1 sequence (P09960 1-611): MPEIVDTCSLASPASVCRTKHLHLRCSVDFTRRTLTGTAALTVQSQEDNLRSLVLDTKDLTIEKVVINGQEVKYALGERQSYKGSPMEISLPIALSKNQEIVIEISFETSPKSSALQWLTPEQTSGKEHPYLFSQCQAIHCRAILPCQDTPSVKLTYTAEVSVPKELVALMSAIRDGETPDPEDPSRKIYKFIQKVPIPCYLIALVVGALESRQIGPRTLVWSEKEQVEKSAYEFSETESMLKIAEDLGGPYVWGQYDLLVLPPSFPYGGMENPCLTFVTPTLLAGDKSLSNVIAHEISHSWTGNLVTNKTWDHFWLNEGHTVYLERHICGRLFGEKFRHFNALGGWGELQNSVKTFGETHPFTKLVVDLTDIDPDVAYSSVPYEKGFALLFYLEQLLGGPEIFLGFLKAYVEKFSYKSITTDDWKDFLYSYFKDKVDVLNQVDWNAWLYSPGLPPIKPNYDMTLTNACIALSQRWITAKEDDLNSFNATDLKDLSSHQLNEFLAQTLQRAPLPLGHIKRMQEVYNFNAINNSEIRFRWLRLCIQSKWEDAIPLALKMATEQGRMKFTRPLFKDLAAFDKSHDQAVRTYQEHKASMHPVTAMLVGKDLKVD
# Protocol: a) Human LTA4H Enzyme Assay:
# […] (LTA4H) catalyzes the vinylogous hydrolysis of the epoxide, leukotriene A4 (LTA4) into the pro-inflammatory mediator LTB4.
# For compound testing, compounds are delivered as 10 mM stock solutions in 90% DMSO (10% water) in matrix tubes. […] A final substrate concentration of 600 μM, which is around the KM value of Arg-AMC, at a final enzyme concentration of 9 nM is chosen. Upon addition of the substrate, the plate is immediately placed in a fluorescence reader and the fluorescence is measured every 10 minutes for 60 minutes using the filter setting λ excitation=380 nm and A emission=460 nm. […] Raw data is converted to rate (moles per minute) using the AMC calibration curve calculated from the AMC standards. The data is analyzed in GraphPad Prism (GraphPad software Inc.) using non-linear regression to determine IC50 values of LTA4H inhibitors.
# [1] = system: LTB4 biosynthesis in human whole blood; test: Human whole blood assay (hWB), inhibition of LTB4 biosynthesis; assay type: cell-based; conditions: read-out: hWB IC50
# Protocol: b) Human Whole Blood Assay:
# Compounds are tested in a human whole blood assay (hWB) to test their ability to inhibit LTB4 biosynthesis in a human cellular system. To this end, fresh blood is collected in heparinized vacutainers by venipuncture from volunteers. Blood is diluted 1:3 with RPM (Roswell Park Memorial Institute) medium and aliquots of 200 μL are transferred to 96-well round bottom cell culture plates. For compound testing, compounds are delivered as 10 mM stock solutions in 90% DMSO in matrix tubes. […] 4 μL of compound dilution or vehicle is added to 200 μL of blood and incubated for 4 hours at 37° C. in a humidified incubator. […] Incubation is terminated by centrifugation at 300 g for 10 min at 22° C. Plasma supernatant is taken and transferred to a 96 well plate for eicosanoid determination by ELISA (Assay designs) according to the manufacturer's protocol after 1:20 dilution in assay buffer. The data is analyzed in GraphPad Prism (GraphPad software Inc.) using non-linear regression to determine IC50 values of LTA4H inhibitors.
# [2] = human blood diluted 1:3, 4 hours with compound, 10 μg/ml A23187 for 15 min, eicosanoid by ELISA
IC50 (human LTA4H) [nM],"IC50 [1, 2] [nM]",Structure (SMILES),IC50 ([1]; Homo sapiens) [nM]
–,117,N[C@H](CO)Cc1nc(-c2ccc(Oc3ncc(-c4ccn[nH]4)cc3F)cc2)no1 [Example 07],–
9.4,510,N[C@H](CO)Cc1noc(-c2ccc(Oc3ccc(Cl)cn3)cc2)n1 [Example 06],–
2.4,229,"N[C@H](CO)Cc1nc(-c2ccc(Oc3ccc(Cl)cn3)cc2)no1 [Example 16, (S)-2-amino-3-(3-(4-((5-chloropyridin-2-yl)oxy)phenyl)-1,2,4-oxadiazol-5-yl)propan-1-ol]",–
3.2,75,"N[C@H](CO)Cn1nnc(-c2ccc(Oc3ccc(-c4ccn[nH]4)cn3)cc2)n1 [Example 20, (S)-3-(5-(4-((5-(1H-pyrazol-3-yl)pyridin-2-yl)oxy)phenyl)-2H-tetrazol-2-yl)-2-aminopropan-1-ol]",–
160,–,"N[C@H](CO)Cn1cc(-c2ccc(Oc3ncc(Cl)cc3F)cc2)cn1 [Example 25, (S)-2-amino-3-(4-(4-((5-chloro-3-fluoropyridin-2-yl)oxy)phenyl)-1H-pyrazol-1-yl)propan-1-ol]",–
–,100,"N[C@H](CO)Cc1nc(-c2cccc(Oc3ccc(OC(F)F)cn3)c2)no1 [Example 03, (S)-2-amino-3-(3-(3-((5-(difluoromethoxy)pyridin-2-yl)oxy)phenyl)-1,2,4-oxadiazol-5-yl)propan-1-ol]",–
3.3,214,"N[C@H](CO)Cn1nnc(-c2ccc(Oc3ccc(Cl)cc3)cc2)n1 [Example 27, (S)-2-Amino-3-(5-(4-(4-chlorophenoxy)phenyl)-2H-tetrazol-2-yl)propan-1-ol]",–
2.5,74,"N[C@H](CO)Cc1nc(-c2cccc(Oc3ccc(-c4ccn[nH]4)cn3)c2)no1 [Example 09, (S)-3-(3-(3-((5-(1H-pyrazol-5-yl)pyridin-2-yl)oxy)phenyl)-1,2,4-oxadiazol-5-yl)-2-aminopropan-1-ol]",–
–,51,"N[C@H](CO)Cc1nc(-c2ccc(Oc3ccc(-c4ccn[nH]4)cn3)cc2)no1 [Example 13, (S)-3-(3-(4-((5-(1H-Pyrazol-5-yl)pyridin-2-yl)oxy)phenyl)-1,2,4-oxadiazol-5-yl)-2-aminopropan-1-ol]",–
6.3,141,"N[C@H](CO)Cc1nc(-c2cccc(Oc3ccc(C(F)(F)F)cn3)c2)no1 [Example 10, (S)-2-amino-3-(3-(3-((5-(trifluoromethyl)pyridin-2-yl)oxy)phenyl)-1,2,4-oxadiazol-5-yl)propan-1-ol]",–
2.1,72,"N[C@H](CO)Cc1nc(-c2cccc(Oc3ccc(Cl)cn3)c2)no1 [Example 02, (S)-2-amino-3-(3-(3-((5-chloropyridin-2-yl)oxy)phenyl)-1,2,4-oxadiazol-5-yl)propan-1-ol]",–
15.8,–,"N[C@H](CO)Cn1nnc(-c2ccc(Oc3ccc(Cl)cc3)nc2)n1 [Example 35, (S)-2-Amino-3-(5-(6-(4-chlorophenoxy)pyridin-3-yl)-2H-tetrazol-2-yl)propan-1-01]",–
–,69,"N[C@@H](CO)Cn1nnc(-c2ccc(Oc3ncc(Cl)cc3F)cc2)n1 [Example 30, (R)-2-Amino-3-(5-(4-((5-chloro-3-fluoropyridin-2-yl)oxy)phenyl)-2H-tetrazol-2-yl)propan-1-ol]",–

# The remaining lines, values behind:
Structure (SMILES),IC50 (human LTA4H) [nM],"IC50 [1, 2] [nM]",IC50 ([1]; Homo sapiens) [nM]
"N[C@H](CO)Cn1ccc(-c2ccc(Oc3ncc(Cl)cc3F)cn2)n1 [Example 23, (S)-2-amino-3-(3-(5-((5-chloro-3-fluoropyridin-2-yl)oxy)pyridin-2-yl)-1H-pyrazol-1-yl)propan-1-ol]",37.6,753,–
"N[C@H](CO)Cn1nnc(-c2cccc([C@@H]3COc4cccnc4O3)c2)n1 [Example 14, (S)-2-amino-3-(5-(3-((R)-2,3-dihydro-[1,4]dioxino[2,3-b]pyridin-3-yl)phenyl)-2H-tetrazol-2-yl)propan-1-ol]",2.3,39,–
"N[C@H](CO)Cn1nnc(-c2ccc(Oc3ncc(-c4ccn[nH]4)cc3F)cn2)n1 [Example 22, (S)-2-amino-3-(5-(5-((3-fluoro-5-(1H-pyrazol-5-yl)pyridin-2-yl)oxy)pyridin-2-yl)-2H-tetrazol-2-yl)propan-1-ol]",2.7,89,–
"N[C@H](CO)Cc1nc(-c2cccc([C@H]3COc4ccccc4O3)c2)no1 [Example 01, (S)-2-amino-3-(3-(3-((S)-2,3-dihydrobenzo[b][1,4]dioxin-2-yl)phenyl)-1,2,4-oxadiazol-5-yl)propan-1-ol]",–,91,–
"C[C@H](Cc1ccccc1)Oc1ccc(-c2noc(C[C@H](N)CO)n2)cc1 [Example 17, (S)-2-amino-3-(3-(4-(((R)-1-phenylpropan-2-yl)oxy)phenyl)-1,2,4-oxadiazol-5-yl)propan-1-ol]",16.7,297,–
"N[C@H](CO)Cc1nc(-c2ccc(Oc3ccc(OC(F)F)cn3)cc2)no1 [Example 05, (S)-2-amino-3-(3-(4-((5-(difluoromethoxy)pyridin-2-yl)oxy)phenyl)-1,2,4-oxadiazol-5-yl)propan-1-ol]",28.3,1850,–
"N[C@H](CO)Cn1ccc(-c2cccc(Oc3ncc(Cl)cc3F)c2)n1 [Example 24, (S)-2-amino-3-(3-(3-((5-chloro-3-fluoropyridin-2-yl)oxy)phenyl)-1H-pyrazol-1-yl)propan-1-ol]",–,379,–
"N[C@@H](CO)Cn1nnc(-c2ccc(Oc3ccc(Cl)cn3)cc2)n1 [Example 31, (R)-2-Amino-3-(5-(4-((5-chloropyridin-2-yl)oxy)phenyl)-2H-tetrazol-2-yl)propan-1-ol]",4.5,179,–
N[C@H](CO)Cn1ccc(-c2ccc(Oc3ccc(-c4ccn[nH]4)cn3)cc2)n1 [Example 36],2.9,–,60
"N[C@H](CO)Cn1nnc(-c2ccc(Oc3ccc(Cl)cn3)cc2)n1 [Example 34, (S)-2-Amino-3-(5-(4-((5-chloropyridin-2-yl)oxy)phenyl)-2H-tetrazol-2-yl)propan-1-ol]",4,800,–
"N[C@H](CO)Cn1nnc(-c2ccc(Oc3ncc(Cl)cc3F)cc2)n1 [Example 29, (S)-2-Amino-3-(5-(4-((5-chloro-3-fluoropyridin-2-yl)oxy)phenyl)-2H-tetrazol-2-yl)propan-1-ol]",–,162,–
"N[C@H](CO)Cc1nnn(-c2ccc(Oc3ncc(-c4ccn[nH]4)cc3F)cc2)n1 [Example 40, (S)-2-amino-(2-(4-((3-fluoro-5-(1H-pyrazol-5-yl)pyridin-2-yl)oxy)phenyl)-2H-tetrazol-5-yl)propan-1-ol]",2.6,62,–
"N[C@H](CO)Cn1nnc(-c2ccc(Oc3ncc(-c4ncco4)cc3F)cc2)n1 [Example 38, (2S)-2-amino-3-[5-(4-[[3-fluoro-5-(1,3-oxazol-2-yl)pyridin-2-yl]oxy]phenyl)-2H-1,2,3,4-tetrazol-2-yl]propan-1-ol]",7.4,–,–
"N[C@H](CO)Cn1ccc(-c2ccc(Oc3ncc(-c4ccn[nH]4)cc3F)cn2)n1 [Example 21, (S)-2-amino-3-(3-(5-((3-fluoro-5-(1H-pyrazol-5-yl)pyridin-2-yl)oxy)pyridin-2-yl)-1H-pyrazol-1-yl)propan-1-ol]",3.1,123,–
"N[C@H](CO)Cc1nc(-c2cccc([C@@H]3COc4cccnc4O3)c2)no1 [Example 11, (S)-2-amino-3-(3-(3-((R)-2,3-dihydro-[1,4]dioxino[2,3-b]pyridin-3-yl)phenyl)-1,2,4-oxadiazol-5-yl)propan-1-ol]",–,44,–
"N[C@H](CO)Cc1nc(-c2ccc(Oc3ccc(C(F)(F)F)cn3)cc2)no1 [Example 04, (S)-2-amino-3-(3-(4-((5-(trifluoromethyl)pyridin-2-yl)oxy)phenyl)-1,2,4-oxadiazol-5-yl)propan-1-ol]",11.8,327,–
